Assay results: article PMC4603705, “A bioinspired peptide scaffold with high antibiotic activity and low in vivo toxicity” (Scientific Reports, 2015)
Converted amounts (≈) assume the structure as drawn. “And” between values parts separate entries of the source, which are not always exact repeats. Equal entries are not always repeated. Where two headings read alike, the source gives them in different places.

Tests used:
[1] = tested on: E. faecalis ATTC 29212; assay: microbe, parasite or virus in culture; type: cell-based, Enterococcus faecalis; details: Enterococcus faecalis, ATTC29212, read-out: MIC E. faecalis Wild type ATTC 29212
Experimental: Lipopeptide 39 was chosen for this, as it is known that long fatty acids tend to favor activity against Gram-positive bacteria in polymyxin analogs. […] In summary, new broad-spectrum antimicrobial lipopeptides were achieved.
(§1) MICs were measured after 18–20 h of incubation in sterile 96-well plates (Corning Costar 3598 microtiter plates) in Mueller Hinton Broth (MHB) culture medium, (Difco, USA), according to well known in vitro protocols. Bacterial strains in Table 1 were: P. aeruginosa ATTC 9027, E. coli ATTC 8739, S. aureus ATTC 6538, and E. faecalis ATTC 29212. MICs shown in table 4 were performed by Mary Conrad at Cubist Pharmaceuticals (Lexington, MA) in non-binding surface plates.

[2] = tested on: S. aureus; assay: microbe, parasite or virus in culture; type: cell-based, Staphylococcus aureus; details: Staphylococcus aureus
Experimental: as §1

[3] = tested on: S. aureus ATTC 6538; assay: microbe, parasite or virus in culture; type: cell-based, Staphylococcus aureus; details: Staphylococcus aureus, ATTC6538, read-out: MIC S. aureus
Experimental: as §1

[4] = tested on: E. coli (ATCC 25922); assay: Reduction of viability by plate count, E. coli; type: cell-based, Escherichia coli; details: 5 μg/mL
Experimental: (§2) An overnight culture (12 to 16 h) of S. aureus (ATCC 29213) or E. coli (ATCC 25922) in Tryptic Soy Broth (TSB) was grown at 37 °C and 400 μL were added in 50 mL of tryptone water (∼10^7 bacteria/mL). The bacterial suspension was split into aliquots of 4-5 mL and treated with the peptides (at the MIC) for different incubation times at room temperature. Cells were collected by centrifugation (10000 rpm, 20 min) and resuspended in 1 mL of filtered Ringer’s solution.

[5] = tested on: E. coli (ATCC 25922); assay: Flow cytometry (PI membrane permeability, BOX membrane potential), E. coli; type: cell-based, Escherichia coli; details: 5 μg/mL
Experimental: The mechanism of action at the membrane level of our best candidate was studied using flow cytometry. To assess membrane permeability, a propidium iodide (PI) probe was used[43][44]. The fluorescence conferred by this probe is generally associated with cells that have lost their membrane integrity. The effect on membrane potential was evaluated with bis-(1,3-dibutylbarbituric acid) trimethine oxonol (BOX). Membrane depolarization leads to the incorporation of this anionic dye into the cell where it binds to lipid-rich intracellular compounds, resulting in an increase in fluorescence.
as §2
A stock solution of propidium iodide (PI, 1 mg/mL, Molecular Probes) and bis-(1,3-dibutylbarbituric acid) trimethine oxonol (BOX, 250 μM, Sigma Aldrich) was prepared in distilled water. Portions (10 μL and 2 μL, respectively) were added to aliquots of cells (100 μL of each sample in 1 mL of Ringer’s solution) to give a final concentration of 10 μg/mL of PI and 0.5 μM for BOX.
Flow cytometric measurements were performed on a Gallios multi-colour flow cytometer instrument (Beckman Coulter, Inc, Fullerton, CA) set up with the 3-lasers 10 colors standard configuration. Excitation was done using a blue (488 nm) laser. Forward scatter (FS), side scatter (SS), green fluorescence (525/40 nm) from BOX and red fluorescence (620/30 nm) emitted by PI were collected using logarithmic scales. FS was used as the discriminating parameter. The single-cell bacterial population was selected on a forward-side scatter plot. Fluorescence was presented in a dot plot of BOX vs. PI. Three regions were defined on this graph according to the controls: depolarized, permeabilized and non-affected cells. Control cells (non-stained and single stained populations) were used to define these regions. 25,000 cells defined according to their scatter parameters were counted in each sample.

[6] = no reference given, cited from earlier work
[7] = tested on: P. aeruginosa
Experimental: (§3) Strains of E. coli and P. aeruginosa with resistance to quinolones and carbapenems as well as multi-drug-resistant bacteria were tested.
as §1

[8] = tested on: E. coli
Experimental: as §3, §1

[9] = resistant to nalidixic acid, cotrimoxazole and ampicillin

CN[C@H](CC(C)C)C(=O)N[C@H]1C(=O)N[C@@H](CC(N)=O)C(=O)N[C@H]2C(=O)N[C@H]3C(=O)N[C@H](C(=O)N[C@H](C(=O)O)c4cc(O)cc(O)c4-c4cc3ccc4O)[C@H](O)c3ccc(c(Cl)c3)Oc3cc2cc(c3O[C@@H]2O[C@H](CO)[C@@H](O)[C@H](O)[C@H]2O[C@H]2C[C@](C)(N)[C@H](O)[C@H](C)O2)Oc2ccc(cc2Cl)[C@H]1O [Vancomycin]
MIC [1]: 2 µg/mL (≈ 1.38 µM) | MIC ([2]; read-out: MIC S. aureus DR, MR SAU.1616): 2 µg/mL (≈ 1.38 µM) | MIC ([2]; read-out: MIC S. aureus DR, MS SAU.278): 2 µg/mL (≈ 1.38 µM) | MIC ([2]; read-out: MIC S. aureus MR ATTC 43300): 2 µg/mL (≈ 1.38 µM) | MIC ([2]; read-out: MIC S. aureus MR SAU.1118): 0.5 µg/mL (≈ 0.345 µM) | MIC ([2]; read-out: MIC S. aureus MS ATTC 29213): 0.5 to 1 µg/mL (≈ 0.345 to 0.69 µM) | MIC [3]: 1 µg/mL (≈ 0.69 µM)

PxB nonapeptide [PxBN]
% viability reduction ([4]; 30 min): 0% | % viability reduction ([4]; 60 min): 5% | % of stained cells BOX ([5]; 30 min): 5% | % of stained cells PI ([5]; 30 min): 10% | % of stained cells BOX ([5]; 60 min): 3%-6% and 6% | % of stained cells PI ([5]; 60 min): 3%-6% and 3%

Somatostatin
half-life ([6]; administered in vivo): 2 to 3 min

colistin [PxE, reference compound]
MIC P. aeruginosa 38a ([7]; resistant to ceftazidime, ciprofloxacin, imipenem, piperacillin-tazobactam): 1 µg/mL | MIC P. aeruginosa 40b ([7]; resistant to imipenem): 1 µg/mL | MIC E. coli NDM-1 ([8]; highly-resistant, New Delhi metallo-beta-lactamase gene): 0.5 µg/mL | MIC E. coli VAL 5 ([8]; resistant to nalidixic acid): 0.25 µg/mL | MIC E. coli MAC 21a [8, 9]: 0.5 µg/mL | MIC E. coli VAL 10 [8, 9]: 0.5 µg/mL

lanreotide [reference compound]
half-lives ([6]; metabolic degradation): 2 to 3 h
